Data reported in patent publication US20250082656A1, “DOSAGE REGIMENS FOR TREATMENT OF DENGUE INFECTION” (Atea Pharmaceuticals, Inc., priority 2022, published 2025).

How the values were obtained:
DENV1 NS5 [1] = biological target: T1, DENV1 NS5 (Dengue virus type 1, UniProt P17763); experiment: Nucleotide analogue incorporation / discrimination assay, DENV1 NS5; assay type: biochemical; settings: GTP for AT-9010 and AT-9002, UTP for SOF-TP
Experimental: (§1) The chain-terminating efficiency of Compound 5 was measured in competitive nucleotide incorporation assays using all four DENV serotypes. […] In comparison, sofosbuvir triphosphate is incorporated into the RNA less than 1 time for every 100 UTP (native uridine triphosphate) incorporations.
(§2) Measurements and quantitations were as in FIG. 19B.
(§3) DENV NS5 was pre-incubated with the annealed P10/T20 RNA in an assembly buffer containing 20 mM HEPES pH 7.5, 10% glycerol, 5 mM MgCl2, and 5 mM DTT for 10 min at 30° C. to create an active RNA elongation complex.
(§4) Reactions were started by adding AT-9010 with either all four NTPs or UTP, ATP, and CTP only.
(§5) Single nucleotide incorporation was tested as follows. Reactions were started by adding the corresponding NTP or analogue. Final concentrations were 1 μM NS5, 0.25 μM P10/T20, 100 μM NTP or analogue in a final buffer containing 20 mM HEPES pH 7.5, 15% glycerol, 5 mM MgCl2, and 5 mM DTT.
(§6) Reactions were quenched at the designated time points in 3× volume FBD stop solution (formamide, 10 mM EDTA) and analyzed on 20% acrylamide-bisacrylamide (19:1) […] sequencing gels. RNA products were visualized using a Typhoon FluorImager then analyzed and quantified using ImageQuant software.

DENV2 NS5 [2] = biological target: T2, DENV2 NS5 (Dengue virus type 2, UniProt P14340); experiment: Nucleotide analogue incorporation / discrimination assay, DENV2 NS5; assay type: biochemical; settings: DENV2; GTP for AT-9010 and AT-9002, UTP for SOF-TP
Experimental: as §1
The experimental procedure is provided in Example 10.
as §2
DENV NS5 was preincubated with the annealed P10/T20 RNA in an assembly buffer containing 20 mM HEPES pH 7.5, 10% glycerol, 5 mM MgCl2 and 5 mM DTT for 10 min at 30° C. to create an active RNA elongation complex. Reactions were started by adding AT-9010 with either all four NTPs, or UTP, ATP and CTP only. […] Reactions were quenched at indicated timepoints in 2× volume FBD stop solution (formamide, 10 mM EDTA) and analysed on 20% acrylamide:bisacrylamide (19:1), […] sequencing gels. RNA products were visualized using a Typhoon FluorImager and analyzed using ImageQuant software.
as §3, §4, §5, §6

DENV3 NS5 [3] = biological target: T3, DENV3 NS5 (Dengue virus type 3, UniProt Q6YMS4); experiment: Nucleotide analogue incorporation / discrimination assay, DENV3 NS5; assay type: biochemical; settings: GTP for AT-9010 and AT-9002, UTP for SOF-TP
T3 sequence (Q6YMS4 2491-3390): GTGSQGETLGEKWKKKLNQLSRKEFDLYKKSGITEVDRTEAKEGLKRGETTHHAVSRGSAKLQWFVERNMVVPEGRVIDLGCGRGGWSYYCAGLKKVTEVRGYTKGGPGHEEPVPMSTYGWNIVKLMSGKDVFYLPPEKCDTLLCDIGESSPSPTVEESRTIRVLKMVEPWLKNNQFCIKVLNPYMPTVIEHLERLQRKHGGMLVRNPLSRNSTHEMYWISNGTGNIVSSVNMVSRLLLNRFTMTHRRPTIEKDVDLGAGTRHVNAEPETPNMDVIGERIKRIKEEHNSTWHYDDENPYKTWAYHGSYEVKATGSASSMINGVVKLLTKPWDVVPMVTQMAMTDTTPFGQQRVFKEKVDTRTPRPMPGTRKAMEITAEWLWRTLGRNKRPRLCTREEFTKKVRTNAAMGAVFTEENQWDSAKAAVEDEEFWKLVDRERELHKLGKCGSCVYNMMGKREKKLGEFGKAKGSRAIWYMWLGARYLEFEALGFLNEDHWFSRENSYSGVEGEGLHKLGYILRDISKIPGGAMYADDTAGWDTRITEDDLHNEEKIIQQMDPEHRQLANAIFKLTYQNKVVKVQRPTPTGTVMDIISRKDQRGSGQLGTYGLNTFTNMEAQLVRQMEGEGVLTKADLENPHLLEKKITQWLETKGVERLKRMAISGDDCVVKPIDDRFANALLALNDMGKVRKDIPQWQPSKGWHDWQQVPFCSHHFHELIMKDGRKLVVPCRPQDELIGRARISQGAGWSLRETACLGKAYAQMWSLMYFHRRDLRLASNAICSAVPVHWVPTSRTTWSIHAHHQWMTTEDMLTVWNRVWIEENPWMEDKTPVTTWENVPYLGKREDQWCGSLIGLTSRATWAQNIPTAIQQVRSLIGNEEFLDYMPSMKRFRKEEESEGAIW
Experimental: as §1, §2, §3, §4, §5, §6

DENV4 NS5 [4] = biological target: T4, DENV4 NS5 (Dengue virus type 4, UniProt P09866); experiment: Nucleotide analogue incorporation / discrimination assay, DENV4 NS5; assay type: biochemical; settings: GTP for AT-9010 and AT-9002, UTP for SOF-TP
T4 sequence (P09866 2488-3387): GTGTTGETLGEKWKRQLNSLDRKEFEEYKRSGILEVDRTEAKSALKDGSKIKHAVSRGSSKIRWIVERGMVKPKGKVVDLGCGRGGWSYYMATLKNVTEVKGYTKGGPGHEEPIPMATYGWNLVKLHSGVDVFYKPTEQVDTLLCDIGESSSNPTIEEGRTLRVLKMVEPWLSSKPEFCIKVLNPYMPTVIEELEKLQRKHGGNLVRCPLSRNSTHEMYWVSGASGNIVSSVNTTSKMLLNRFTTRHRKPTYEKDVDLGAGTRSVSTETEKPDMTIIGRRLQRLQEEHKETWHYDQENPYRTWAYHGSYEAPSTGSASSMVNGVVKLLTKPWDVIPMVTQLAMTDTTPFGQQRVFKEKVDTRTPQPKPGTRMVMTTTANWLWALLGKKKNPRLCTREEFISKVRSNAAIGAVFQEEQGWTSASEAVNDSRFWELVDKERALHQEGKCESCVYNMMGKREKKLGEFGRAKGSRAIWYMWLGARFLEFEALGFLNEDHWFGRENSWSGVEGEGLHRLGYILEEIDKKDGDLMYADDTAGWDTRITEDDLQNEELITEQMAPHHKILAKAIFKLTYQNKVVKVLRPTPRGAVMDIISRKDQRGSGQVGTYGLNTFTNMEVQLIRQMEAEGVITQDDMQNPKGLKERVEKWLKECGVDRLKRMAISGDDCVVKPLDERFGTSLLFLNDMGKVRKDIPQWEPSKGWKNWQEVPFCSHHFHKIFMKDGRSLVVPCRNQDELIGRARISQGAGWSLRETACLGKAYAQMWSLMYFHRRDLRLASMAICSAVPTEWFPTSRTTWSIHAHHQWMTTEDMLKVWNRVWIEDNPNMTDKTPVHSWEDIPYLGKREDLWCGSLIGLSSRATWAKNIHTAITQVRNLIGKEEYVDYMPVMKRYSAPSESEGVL
Experimental: as §1
The nature of regular inserted Watson-Crick nucleotides is indicated in the right of the gel. […] Quantification of band-products greater in size than the G/AT (+5) band relative to the G/AT (+5) band were measured using a Typhoon FluorImager, and allowed to calculate the discrimination value. The incorporation rates for […] and AT9002 are compared to that of GTP, and to that of UTP in the case of SOF-TP.
as §2, §3, §4, §5, §6

[5] = test system: erythroid (E) human bone marrow progenitor cells; experiment: Bone marrow progenitor cell assay, erythroid (E); settings: E cell assay, 14 days, colonies counted
[6] = test system: granulocyte macrophage (GM) human bone marrow progenitor cells; experiment: Bone marrow progenitor cell assay, granulocyte macrophage (GM); settings: GM cell assay, 14 days, colonies counted
DENV1 NS5 [7] = biological target: T1, DENV1 NS5; experiment: Thermal shift assay, DENV1 NS5; settings: read-out: ΔTM
DENV2 NS5 [8] = biological target: T2, DENV2 NS5; experiment: Thermal shift assay, DENV2 NS5; settings: read-out: ΔTM
DENV3 NS5 [9] = biological target: T3, DENV3 NS5; experiment: Thermal shift assay, DENV3 NS5; settings: read-out: ΔTM
DENV4 NS5 [10] = biological target: T4, DENV4 NS5; experiment: Thermal shift assay, DENV4 NS5; settings: read-out: ΔTM
DENV1 RdRp domain = experiment: Thermal shift assay, DENV1 RdRp domain; settings: RdRp domain DENV1, 100 μM compound
DENV2 RdRp domain = DENV2 RdRp domain (Dengue virus type 2, UniProt P14340); experiment: Thermal shift assay, DENV2 RdRp domain; settings: read-out: ΔTM
DENV3 RdRp domain = experiment: Thermal shift assay, DENV3 RdRp domain; settings: RdRp domain DENV3, 100 μM compound
DENV4 RdRp domain = experiment: Thermal shift assay, DENV4 RdRp domain; settings: RdRp domain DENV4, 100 μM compound
DENV1 MTase domain = DENV1 MTase domain (Dengue virus type 1, UniProt P17763); experiment: Thermal shift assay, DENV1 MTase domain; settings: read-out: ΔTM
DENV1 MTase domain, sequence (P17763 2495-2756): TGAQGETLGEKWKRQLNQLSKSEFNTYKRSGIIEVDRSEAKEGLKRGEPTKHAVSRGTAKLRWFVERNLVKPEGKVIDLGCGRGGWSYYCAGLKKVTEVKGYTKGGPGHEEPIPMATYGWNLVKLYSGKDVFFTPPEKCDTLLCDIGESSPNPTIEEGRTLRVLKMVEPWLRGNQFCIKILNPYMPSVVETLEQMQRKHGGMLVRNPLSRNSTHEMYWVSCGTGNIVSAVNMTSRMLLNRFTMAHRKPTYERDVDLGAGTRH

DENV2 MTase domain = DENV2 MTase domain (Dengue virus type 2, UniProt P14340); experiment: Thermal shift assay, DENV2 MTase domain; settings: read-out: ΔTM
DENV3 MTase domain = DENV3 MTase domain (Dengue virus type 3, UniProt Q6YMS4); experiment: Thermal shift assay, DENV3 MTase domain; settings: read-out: ΔTM
DENV3 MTase domain, sequence (Q6YMS4 2492-2753): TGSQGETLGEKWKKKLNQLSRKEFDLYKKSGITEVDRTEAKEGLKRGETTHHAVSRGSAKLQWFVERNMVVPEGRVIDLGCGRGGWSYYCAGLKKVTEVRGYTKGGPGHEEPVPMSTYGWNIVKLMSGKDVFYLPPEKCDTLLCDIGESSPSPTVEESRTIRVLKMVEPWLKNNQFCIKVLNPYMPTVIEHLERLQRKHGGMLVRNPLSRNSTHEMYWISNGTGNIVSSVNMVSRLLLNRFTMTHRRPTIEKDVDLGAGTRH

DENV4 MTase domain = DENV4 MTase domain (Dengue virus type 4, UniProt P09866); experiment: Thermal shift assay, DENV4 MTase domain; settings: read-out: ΔTM
DENV4 MTase domain, sequence (P09866 2489-2751): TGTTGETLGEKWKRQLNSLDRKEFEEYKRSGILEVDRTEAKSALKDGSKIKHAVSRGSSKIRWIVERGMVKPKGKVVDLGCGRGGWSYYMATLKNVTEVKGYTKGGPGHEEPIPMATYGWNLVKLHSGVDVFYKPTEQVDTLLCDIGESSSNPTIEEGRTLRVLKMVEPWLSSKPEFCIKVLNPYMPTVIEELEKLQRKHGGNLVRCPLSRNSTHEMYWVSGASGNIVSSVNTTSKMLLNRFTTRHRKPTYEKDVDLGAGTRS

[11] = test system: human induced pluripotent stem cell (iPS) cardiomyocytes; experiment: Cardiomyocyte cytotoxicity assay (CellTiter Glo); settings: iPS cardiomyocytes, 3 days
[12] = test system: NS5 RNA dependent RNA polymerase (RdRp); experiment: Competitive nucleotide incorporation assays, all four DENV serotypes (summary); assay type: biochemical, Dengue virus; settings: versus native uridine triphosphate
Experimental: As described in Example 10 and shown in FIG. 1, the active metabolite of Compound 2 or Compound 1 (Compound 5) acts as a GTP analog and is incorporated into RNA by the NS5 RNA dependent RNA polymerase (RdRp), immediately terminating synthesis.
as §1

T1 sequence (P17763 2494-3392): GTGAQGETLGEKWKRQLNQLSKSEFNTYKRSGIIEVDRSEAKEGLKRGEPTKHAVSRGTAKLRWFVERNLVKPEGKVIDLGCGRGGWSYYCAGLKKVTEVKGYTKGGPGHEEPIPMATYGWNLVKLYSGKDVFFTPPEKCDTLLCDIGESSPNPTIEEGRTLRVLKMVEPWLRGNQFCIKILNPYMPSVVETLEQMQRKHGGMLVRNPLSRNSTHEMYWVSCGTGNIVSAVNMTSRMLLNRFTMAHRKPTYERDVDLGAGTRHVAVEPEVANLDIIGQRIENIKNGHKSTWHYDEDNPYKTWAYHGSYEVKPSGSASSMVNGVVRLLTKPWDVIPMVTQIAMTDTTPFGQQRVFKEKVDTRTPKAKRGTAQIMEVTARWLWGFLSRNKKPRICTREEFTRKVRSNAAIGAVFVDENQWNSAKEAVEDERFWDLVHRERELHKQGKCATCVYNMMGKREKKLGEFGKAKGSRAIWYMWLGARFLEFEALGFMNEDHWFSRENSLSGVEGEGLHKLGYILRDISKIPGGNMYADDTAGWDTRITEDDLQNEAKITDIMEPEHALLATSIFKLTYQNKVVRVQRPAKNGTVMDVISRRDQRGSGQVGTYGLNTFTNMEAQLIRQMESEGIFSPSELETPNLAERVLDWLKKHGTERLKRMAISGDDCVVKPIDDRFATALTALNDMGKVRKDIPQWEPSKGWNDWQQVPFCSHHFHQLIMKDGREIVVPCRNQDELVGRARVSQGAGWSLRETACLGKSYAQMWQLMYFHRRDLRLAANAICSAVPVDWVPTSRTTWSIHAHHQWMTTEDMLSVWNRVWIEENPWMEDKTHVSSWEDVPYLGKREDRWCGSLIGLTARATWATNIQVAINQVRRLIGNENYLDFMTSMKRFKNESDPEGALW

Compound | Preference (discrimination) native nucleotide > analogue (DENV1 NS5 [1]) | Preference (discrimination) native nucleotide > analogue (DENV2 NS5 [2]) | Preference (discrimination) native nucleotide > analogue (DENV3 NS5 [3]) | Preference (discrimination) native nucleotide > analogue (DENV4 NS5 [4]) | ΔTm at 100 µM (DENV1 NS5 [7]) [°C] | ΔTm at 100 µM (DENV2 NS5 [8]) [°C] | ΔTm at 100 µM (DENV3 NS5 [9]) [°C] | ΔTm at 100 µM (DENV4 NS5 [10]) [°C] | ΔTm at 100 µM (DENV2 RdRp domain) [°C] | ΔTm at 100 µM (DENV1 MTase domain) [°C] | ΔTm at 100 µM (DENV2 MTase domain) [°C] | ΔTm at 100 µM (DENV3 MTase domain) [°C] | ΔTm at 100 µM (DENV4 MTase domain) [°C] | also measured
C[C@@]1(O)[C@H](O)[C@@H](COP(=O)(O)OP(=O)(O)OP(=O)(O)O)O[C@H]1n1cnc2c(=O)[nH]c(N)nc21 [AT-9002, 2′-methylguanosine triphosphate] | 19.4 ± 2.8 | 18.2 ± 0.2 | 17.5 ± 1.5 | 41.5 ± 7.3 | – | – | – | – | – | – | – | – | – | –
Cc1cn([C@H]2C[C@H](N=[N+]=[N-])[C@@H](CO)O2)c(=O)[nH]c1=O [AZT, reference compound] | – | – | – | – | – | – | – | – | – | – | – | – | – | CC50 [5]: 3 µM; CC50 [6]: 2 µM
Nc1nc2c(ncn2[C@@H]2O[C@H](COP(=O)(O)OP(=O)(O)OP(=O)(O)O)[C@@H](O)[C@H]2O)c(=O)[nH]1 [GTP, guanosine triphosphate] | – | – | – | – | 5.8 ± 0.1 | 5.7 ± 0.1 | 4.8 ± 0.1 | 3.9 ± 0.1 | 2.4 ± 0.1 | 4.9 ± 0.1 | 5.7 ± 0.1 | 4.1 ± 0.1 | 4 ± 0.1 | ΔTM (DENV1 RdRp domain): 4.5±0.2 °C; ΔTM (DENV3 RdRp domain): 2.2 ± 0.1 °C; ΔTM (DENV4 RdRp domain): 3.3 ± 0.1 °C
Nc1ncnc2c1ncn2[C@@H]1O[C@H](C[C@@H](N)CC[C@H](N)C(=O)O)[C@@H](O)[C@H]1O [Sinefungin, sinefungin] | – | – | – | – | 1.2 ± 0.1 | 1.4 ± 0.1 | 1.8 ± 0.1 | 1.4 ± 0.1 | -0.8 ± 0.1 | 1.9 ± 0.1 | 2.9 ± 0.1 | 2.1 ± 0.1 | 2.8 ± 0.1 | –
COc1cc2nc(N3CCN(C(=O)C4COc5ccccc5O4)CC3)nc(N)c2cc1OC (stereo not drawn) [doxazosin, reference compound] | – | – | – | – | – | – | – | – | – | – | – | – | – | CC50 [11]: 7 µM
sofosbuvir triphosphate [SOF-TP] | >100 | >100 | >100 | >100 | – | – | – | – | – | – | – | – | – | incorporations into the RNA for every 100 UTP incorporations [12]: less than 1
